Reference: paper PMC6736568, “Discovery of Novel Anti-cryptosporidial Activities From Natural Products by in vitro High-Throughput Phenotypic Screening” (Frontiers in Microbiology, 2019)
Structures can show the parent of a compound that is named as a salt. Where two headings read alike, the source gives them in different places.

What was measured:
Cryptosporidium parvum = test: qRT-PCR assay of the growth of C. parvum in vitro in HCT-8 host cells (primary and secondary screening, EC50); format: cell-based; conditions: Cryptosporidium parvum, HCT-8; for inhibition at 3.3 µM: secondary screening at 3.3 uM, read-out: % Inhibition (3.3 uM)
[1] = primary screening at 10 uM, read-out: Inhibition (%)
[2] = primary screening at 10 uM, treated vs control

Compound | inhibition at 10 µM (Cryptosporidium parvum; [1]) [%] | Hs18S ΔCT (HCT-8 host cells (Hs18S); [2]) | Hs18S ΔCT (HCT-8 host cells (Hs18S); human, 41 h, 10 μM) | cytotoxicity at 41 h, 10 µM (in vitro; human) [%] | also measured
C[C@]12CC[C@H](O)C[C@H]1CC[C@@H]1[C@@H]2C[C@@H](O)[C@]2(C)[C@@H](C3=CC(=O)OC3)CC[C@]12O [DIGOXIGENIN] | 95.6 | 0.33 | – | – | inhibition at 3.3 µM (Cryptosporidium parvum): 69%; cytotoxicity at 10 µM (in vitro): 19.2%
Cc1c(O)c(O)cc2c1CC=C1[C@@]2(C)CC[C@@]2(C)[C@@H]3C[C@](C)(C(=O)O)CC[C@]3(C)CC[C@]12C [DIHYDROCELASTROL] | 92.5 | 1.27 | – | – | inhibition at 3.3 µM (Cryptosporidium parvum): -66%; cytotoxicity at 10 µM (in vitro): 58.7%
COC(=O)C[C@H]1C(C)(C)[C@@H](OC(C)=O)[C@@H]2CC3C4CC(=O)O[C@@H](c5ccoc5)[C@]4(C)CCC3[C@@]1(C)C2=O (some centres unmarked) [DIHYDROFISSINOLIDE] | 4.5 | – | 0.08 | 5.3 | –
Nc1nc2c(c(=O)[nH]1)N=C(CNc1ccc(C(=O)N[C@@H](CCC(=O)O)C(=O)O)cc1)CN2 [DIHYDROFOLIC ACID] | -11.9 | – | -0.36 | -28.7 | –
CC(=O)O[C@@H]1C[C@H]2C(C)(C)C(=O)CC[C@]2(C)[C@H]2CC[C@@]3(C)[C@H](c4ccoc4)OC(=O)[C@H]4O[C@]43[C@@]21C [DIHYDROGEDUNIN] | 33.3 | – | -0.24 | -17.9 | –
CCCCCC1C(=O)CCC1CC(=O)OC (centres unmarked) [DIHYDROJASMONIC ACID, METHYL ESTER] | -8.77 | – | -0.06 | -4 | –
COc1c(CC(=O)c2cc3c(cc2O)OC(C)(C)C(O)C3)ccc2c1C=CC(C)(C)O2 (centres unmarked) [DIHYDROMUNDULETONE] | 4.35 | – | -0.10 | -7.4 | –
COc1cc2c(cc1OC)[C@@H]1C(=O)c3ccc4c(c3O[C@@H]1CO2)CC(C(C)C)O4 (some centres unmarked) [DIHYDROROTENONE] | 10.4 | 0.76 | – | – | cytotoxicity at 10 µM (in vitro): 40.9%
CN[C@@H]1[C@H](O[C@H]2[C@H](O[C@H]3[C@H](O)[C@@H](O)[C@H](NC(=N)N)[C@@H](O)[C@@H]3NC(=N)N)O[C@@H](C)[C@]2(O)CO)O[C@@H](CO)[C@H](O)[C@H]1O [DIHYDROSTREPTOMYCIN SULFATE] | 18 | 0.05 | – | 3.4 | –
C[C@@H]1CC[C@@]2(OC1)O[C@H]1C[C@H]3[C@@H]4CC=C5C[C@@H](O)CC[C@]5(C)[C@H]4CC[C@]3(C)[C@H]1[C@@H]2C [DIOSGENIN] | 14.7 | 0.32 | – | – | cytotoxicity at 10 µM (in vitro): 19.7%
COc1ccc(-c2cc(=O)c3c(O)cc(O[C@@H]4O[C@H](CO[C@@H]5O[C@@H](C)[C@H](O)[C@@H](O)[C@H]5O)[C@@H](O)[C@H](O)[C@H]4O)cc3o2)cc1O [DIOSMIN] | 13.8 | – | -0.65 | -57.1 | –
CC/C=C\C/C=C\C/C=C\C/C=C\C/C=C\C/C=C\CCC(=O)O [DOCONEXENT] | -24.5 | – | -0.06 | -4 | –
CCCCCCCCCCCCCCCCCCCCCCO [DOCOSANOL] | 24.4 | – | -0.38 | -30.5 | –
COc1ccc([C@H]2COc3c(ccc(O)c3OC)C2)c(OC)c1O [DUARTIN (-)] | -26.9 | – | -0.20 | -15.3 | –
COc1ccc2c(c1OC)OC[C@@H](c1ccc(OC)c(OC)c1OC)C2 [DUARTIN, DIMETHYL ETHER] | -13.5 | – | -0.22 | -16.4 | –
O=c1oc2c(O)c(O)cc3c(=O)oc4c(O)c(O)cc1c4c23 [ELLAGIC ACID] | -14.6 | – | -0.05 | -3.6 | –
CCCCCCCCCCCC1=C(O)C(=O)C=C(O)C1=O [EMBELIN] | -5.38 | 0.13 | – | – | cytotoxicity at 10 µM (in vitro): 8.8%
CC[C@H]1CN2CCc3cc(OC)c(OC)cc3[C@@H]2C[C@@H]1C[C@H]1NCCc2cc(OC)c(OC)cc21 [EMETINE DIHYDROCHLORIDE] | 97.3 | 1.41 | – | – | inhibition at 3.3 µM (Cryptosporidium parvum): 95%; cytotoxicity at 41 h, 10 µM (in vitro): 62.4%
Cc1cc(O)c2c(c1)C(=O)c1cc(O)cc(O)c1C2=O [EMODIN] | -18 | – | -0.04 | -3 | –
CC1(C)[C@@H](O)CC[C@]2(C)[C@H]3C(=O)C=C4[C@@H]5C[C@@](C)(C(=O)O)CC[C@]5(C)CC[C@@]4(C)[C@]3(C)CC[C@@H]12 [ENOXOLONE] | -8.81 | – | -0.07 | -5.3 | –
Oc1ccc([C@H]2Oc3cc(O)cc(O)c3C[C@H]2O)cc1 [EPIAFZELECHIN (2R,3R)(-)] | -2.1 | – | -0.14 | -10.2 | –
COc1ccc([C@H]2Oc3cc(OC)cc(OC)c3C[C@H]2O)cc1 [EPIAFZELECHIN TRIMETHYL ETHER] | 13.8 | – | 0.21 | 13.4 | –
CC(=O)Oc1cc(OC(C)=O)c2c(c1)O[C@H](c1ccc(OC(C)=O)c(OC(C)=O)c1)[C@H](OC(C)=O)C2 [EPICATECHIN PENTAACETATE] | -52.5 | -0.02 | – | – | cytotoxicity at 10 µM (in vitro): -1.3%

Compound | inhibition at 10 µM (Cryptosporidium parvum; [1]) [%] | Hs18S ΔCT (HCT-8 host cells (Hs18S); [2]) | Hs18S ΔCT (HCT-8 host cells (Hs18S); human, 41 h, 10 μM) | cytotoxicity at 41 h, 10 µM (in vitro; human) [%] | also measured
Oc1cc(O)c2c(c1)O[C@H](c1ccc(O)c(O)c1)[C@H](O)C2 [EPICATECHIN] | -0.62 | – | -0.09 | -6.3 | –
O=C(Oc1cc(O)cc2c1C[C@@H](OC(=O)c1cc(O)c(O)c(O)c1)[C@@H](c1cc(O)c(O)c(O)c1)O2)c1cc(O)c(O)c(O)c1 [EPIGALLOCATECHIN 3,5-DIGALLATE] | -1.19 | -0.23 | – | – | cytotoxicity at 10 µM (in vitro): -17.5%
Oc1cc(O)c2c(c1)O[C@H](c1cc(O)c(O)c(O)c1)[C@H](O)C2 [EPIGALLOCATECHIN] | 7.01 | – | 0.15 | 9.9 | –
CNC[C@H](O)c1ccc(O)c(O)c1 [EPINEPHRINE BITARTRATE] | – | – | – | – | inhibition at 10 µM (Cryptosporidium parvum): -27.1%; Hs18S ΔCT (HCT-8 host cells (Hs18S)): 0.04; cytotoxicity at 10 µM (in vitro): 2.6%
C[C@@H]1C(=O)O[C@H]2[C@H]1CC[C@@]1(C)C=CC(=O)[C@@]3(C)O[C@@]213 [EPOXY (4,5alpha)-4,5-DIHYDROSANTONIN] | 29.7 | -0.03 | – | – | cytotoxicity at 10 µM (in vitro): -1.8%
C[C@]12CC[C@H]3C(=CCc4cc(O)ccc43)[C@@H]1CCC2=O [EQUILIN] | -53.6 | -0.60 | – | – | cytotoxicity at 41 h, 10 µM (in vitro): -51.5%
C[C@@H](CO)NC(=O)[C@@H]1C=C2c3cccc4[nH]cc(c34)C[C@H]2N(C)C1 [ERGONOVINE MALEATE] | 2.56 | 0.23 | – | – | cytotoxicity at 10 µM (in vitro): 14.5%
CC(C)[C@@H](C)/C=C/[C@@H](C)[C@H]1CC[C@H]2C3=CC=C4C[C@@H](O)CC[C@]4(C)[C@H]3CC[C@]12C [ERGOSTEROL] | -29.6 | -0.03 | – | -1.9 | –
CC[C@H]1OC(=O)[C@H](C)[C@@H](O[C@H]2C[C@@](C)(OC)[C@@H](O)[C@H](C)O2)[C@H](C)[C@@H](O[C@@H]2O[C@H](C)C[C@H](N(C)C)[C@H]2O)[C@](C)(O)C[C@@H](C)C(=O)[C@H](C)[C@@H](O)[C@]1(C)O [ERYTHROMYCIN] | 94.6 | – | 0.62 | 35 | inhibition at 3.3 µM (Cryptosporidium parvum): -13%
O=c1ccc2cc(O)c(O)cc2o1 [ESCULETIN] | -23.8 | 0.21 | – | – | cytotoxicity at 10 µM (in vitro): 13.5%
C[C@]12CC[C@@H]3c4ccc(O)cc4CC[C@H]3[C@@H]1CC[C@@H]2O [ESTRADIOL] | 22 | – | -0.19 | -13.8 | –
C=CCc1ccc(OC)cc1 [ESTRAGOLE] | 99.6 | -0.22 | – | – | inhibition at 3.3 µM (Cryptosporidium parvum): 15%; cytotoxicity at 10 µM (in vitro): -16.6%
C[C@]12CC[C@@H]3c4ccc(O)cc4CC[C@H]3[C@@H]1C[C@@H](O)[C@@H]2O [ESTRIOL] | 14.4 | – | -0.12 | -8.4 | –
C[C@]12CC[C@@H]3c4ccc(O)cc4CC[C@H]3[C@@H]1CCC2=O [ESTRONE] | 28.1 | – | -0.24 | -18.4 | –
COc1cc([C@@H]2c3cc4c(cc3[C@@H](O[C@@H]3O[C@@H]5CO[C@@H](C)O[C@H]5[C@H](O)[C@H]3O)[C@H]3COC(=O)[C@H]23)OCO4)cc(OC)c1O [ETOPOSIDE] | 48.5 | – | 0.40 | 24.1 | –
CC12CCC(CC1)C(C)(C)O2 [EUCALYPTOL] | 16.2 | – | -0.22 | -16.4 | –
C=CCc1ccc(O)c(OC)c1 [EUGENOL] | 3.09 | – | -0.36 | -28.5 | –
C=C(C)c1cc2cc(C(C)=O)c(O)cc2o1 [EUPARIN] | 19 | 0.23 | – | – | cytotoxicity at 10 µM (in vitro): 14.6%
CC(C)=CCC[C@@H](C)[C@@H]1CC[C@]2(C)C3=C(CC[C@@]12C)[C@@]1(C)CC[C@H](O)C(C)(C)[C@@H]1CC3 [EUPHOL] | -2.84 | – | -0.29 | -22.5 | –
COc1cc(C)c(C(=O)O)c(O)c1 [EVERNINIC ACID] | 52.1 | – | -0.34 | -26.6 | –
COc1c2ccoc2nc2c(OC)c(OCC(O)C(C)(C)O)ccc12 (centres unmarked) [EVOXINE] | -7.37 | – | 0.11 | 7 | –
CC(C)=CCC/C(C)=C/CC/C(C)=C/CO [FARNESOL] | 8.75 | – | 0.02 | 1 | –
COC(=O)C[C@H]1C(C)(C)[C@@H](OC(C)=O)[C@@H]2CC3=C4CC(=O)O[C@@H](c5ccoc5)[C@]4(C)CC[C@@H]3[C@@]1(C)C2=O [FISSINOLIDE] | -39.8 | – | -0.81 | -75.3 | –
